From patent US12629363B2, “Prophylaxis and treatment of angioedema” (PHARVARIS GMBH, priority 2020, dated 2026)
Where two headings read alike, the source gives them in different places.

Tests used:
mouse B2 receptor = biological target: T1, mouse B2 receptor (Mus musculus, UniProt P32299); assay: Antagonist potency in cells expressing mouse B2 receptor; assay type: cell-based; settings: compared with human B2 receptor
T1 construct: expressed in transfected cells
T1 sequence (P32299 1-392): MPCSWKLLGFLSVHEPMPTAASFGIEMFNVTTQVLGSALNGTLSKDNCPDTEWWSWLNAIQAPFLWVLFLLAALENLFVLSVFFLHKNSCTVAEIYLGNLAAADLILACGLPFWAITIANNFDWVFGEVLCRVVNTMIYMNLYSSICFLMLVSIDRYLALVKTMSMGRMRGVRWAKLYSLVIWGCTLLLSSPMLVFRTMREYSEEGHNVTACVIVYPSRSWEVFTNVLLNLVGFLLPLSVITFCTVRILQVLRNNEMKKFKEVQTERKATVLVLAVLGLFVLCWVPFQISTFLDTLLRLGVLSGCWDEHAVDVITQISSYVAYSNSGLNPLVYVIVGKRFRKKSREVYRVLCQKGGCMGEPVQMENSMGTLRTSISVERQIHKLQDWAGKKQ
Excerpt: (§1) The bradykinin B2 receptor is well known for its species selective pharmacology (Paquet et al., Br. J. Pharmacol. (126), 1083-1090, 1999 (DOI: 10.1038/sj.bjp.0702403); Burgess et al., Br. J. Pharmacol. (129), 77-86, 2000 (DOI: 10.1038/sj.bjp.0703012)). […] Pharmacol. 11:916; DOI: 10.3389/fphar.2020.00916.

[1] = biological target: T2, cynomolgus monkey B2 receptor (Macaca fascicularis, UniProt A0A7N9CWN6); assay: Antagonist potency in cells expressing cynomolgus monkey B2 receptor; assay type: cell-based; settings: read-out: Kb value to antagonize BK activation
T2 sequence (A0A7N9CWN6 1-391): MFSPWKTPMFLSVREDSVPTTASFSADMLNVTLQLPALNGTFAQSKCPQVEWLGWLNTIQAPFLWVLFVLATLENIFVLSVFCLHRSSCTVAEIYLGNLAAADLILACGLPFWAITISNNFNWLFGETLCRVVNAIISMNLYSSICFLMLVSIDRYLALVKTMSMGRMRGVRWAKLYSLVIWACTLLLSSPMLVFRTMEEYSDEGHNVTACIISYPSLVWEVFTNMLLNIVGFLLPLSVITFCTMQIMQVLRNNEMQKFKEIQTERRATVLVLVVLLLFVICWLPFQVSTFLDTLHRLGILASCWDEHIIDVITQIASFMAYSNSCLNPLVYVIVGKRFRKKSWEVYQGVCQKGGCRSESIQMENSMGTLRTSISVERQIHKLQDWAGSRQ
Excerpt: as §1

[2] = Single ascending dose study in healthy volunteers, safety and tolerability (Example 2); assay type: in vivo, human
Procedure: Safety was assessed by physical examination, vital signs, adverse events, safety laboratory and electrocardiogram (ECG) until 72 h post-dosing.

Plasma protein binding = assay type: in vitro ADME; settings: human
[3] = Drug-drug interaction trial with itraconazole, safety and tolerability (Example 5); assay type: in vivo, human; settings: single 12 mg oral doses on Day 1 and Day 7 (with itraconazole)
Excerpt: Thirteen healthy subjects were enrolled and completed the study.

[4] = Single ascending dose study in healthy volunteers, plasma PK (Example 2); assay type: in vivo, human; settings: for concentration at 0.25 h: read-out: C0.25h; for Vd/F: read-out: Vz/F
[5] = 22 mg, after HCHF breakfast, N = 6
[6] = 22 mg, HCHF breakfast vs fasted
[7] = human, plasma, oral, 1 mg, fasted, mean
[8] = human, plasma, oral, 2 mg, fasted, mean
[9] = human, plasma, oral, 4.5 mg, fasted, mean
[10] = human, plasma, oral, 12 mg, fasted, mean
[11] = human, plasma, oral, 22 mg, after HCHF breakfast, mean
[12] = human, plasma, oral, 22 mg, fasted, mean

With [2H][C@@](C)(NC(=O)COC(F)F)c1cc(F)cc(Cl)c1COc1cccc2c(-c3ncnn3C)cc(C)nc12 [compound of formula (I)] the “fold less potent towards the mouse B2 receptor” value (mouse B2 receptor) was “more than 3000 fold”, the Kb [1] was 1.42 nM and the Any adverse effects ([2]; 1 mg, fasted, N = 6) was 2 (33.3%) n (%). For the same compound, the “Any related adverse effects” value ([2]; 1 mg, fasted, N = 6) was 0 n (%), the “Any serious adverse effects” value ([2]; 1 mg, fasted, N = 6) was 0 n (%) and the Any adverse effects ([2]; 2 mg, fasted, N = 6) was 1 (16.7%) n (%). The “Any related adverse effects” value ([2]; 2 mg, fasted, N = 6) was 0 n (%), the “Any serious adverse effects” value ([2]; 2 mg, fasted, N = 6) was 0 n (%) and the Any adverse effects ([2]; 4.5 mg, fasted, N = 6) was 1 (16.7%) n (%). The “Any related adverse effects” value ([2]; 4.5 mg, fasted, N = 6) was 0 n (%), the “Any serious adverse effects” value ([2]; 4.5 mg, fasted, N = 6) was 0 n (%) and the Any adverse effects ([2]; 12 mg, fasted, N = 14) was 5 (35.7%) n (%). The “Any related adverse effects” value ([2]; 12 mg, fasted, N = 14) was 2 (14.3%) n (%), the “Any serious adverse effects” value ([2]; 12 mg, fasted, N = 14) was 0 n (%) and the Any adverse effects [2, 5] was 1 (16.7%) n (%). The “Any related adverse effects” value [2, 5] was 0 n (%), the “Any serious adverse effects” value [2, 5] was 0 n (%) and the Any adverse effects ([2]; 22 mg, fasted, N = 14) was 2 (14.3%) n (%). For the same compound, the “Any related adverse effects” value ([2]; 22 mg, fasted, N = 14) was 1 (7.1%) n (%), the “Any serious adverse effects” value ([2]; 22 mg, fasted, N = 14) was 0 n (%) and the “subjects with treatment-related adverse events” value ([2]; 12 or 22 mg, gastrointestinal, mild severity) was “three”. For the same compound, the “blood pressure fluctuations and orthostatic hypotension” value ([2]; single oral doses up to 22 mg) was “no clinically relevant fluctuations of blood pressure and no orthostatic hypotension”, the “changes in hematology, clinical chemistry, vital signs, or ECG” value ([2]; single oral doses up to 22 mg) was “no apparent trends or dose-related changes” and the safety and tolerability ([2]; single oral doses up to 22 mg) was “safe and well tolerated”. The fraction unbound (Plasma protein binding) was 0.038, the tolerability [3] was “well tolerated with no related adverse events reported” and the CL/F ([4]; 1 mg, fasted, mean) was 42.3 L/h. The CL/F ([4]; 2 mg, fasted, mean) was 33.8 L/h, the CL/F ([4]; 4.5 mg, fasted, mean) was 37.6 L/h and the CL/F ([4]; 12 mg, fasted, mean) was 40.9 L/h. The “time therapeutically effective plasma levels maintained” value ([4]; 22 mg, HCHF breakfast cohort) was “more than 12 h”, the “time to reach therapeutically effective plasma levels” value ([4]; 22 mg, HCHF breakfast cohort) was no more than 15 min and the “higher AUClast after HCHF breakfast” value [4, 6] was 49%. For the same compound, the “lower Cmax after HCHF breakfast” value [4, 6] was 32%, the CL/F ([4]; 22 mg, after HCHF breakfast, mean) was 25.3 L/h and the Mean (±SD) C12h ([4]; 22 mg, fasted) was 8.34 ± 4.24 ng/mL. The Mean C24h ([4]; 22 mg, fasted) was 1.12 ± 0.786 ng/mL, the CL/F ([4]; 22 mg, fasted, mean) was 31.5 L/h and the “time to reach therapeutic efficacious threshold plasma concentration” value ([4]; all doses) was no more than 15 min. The “time plasma levels maintained at therapeutic efficacious threshold” value ([4]; doses of 12 mg and 22 mg) was “approximately 12 h”, the Tmax ([4]; human, plasma, oral, 1 mg to 22 mg, fasting, read-out: Median tmax in the dose range) was 30 to 60 min and the Tmax ([4]; human, plasma, oral, 1 mg to 22 mg, fasting, read-out: range of individual tmax values) was 15 to 61.2 min. The AUC(0-t) [4, 7] was 33 ng·h/mL, the Cmax [4, 7] was 11.1 ng/mL and the concentration at 0.25 h [4, 7] was 5.99 ng/mL. The concentration at 12 h ([4]; human, plasma, oral, 1 mg, fasted, mean, read-out: C12h) was 0.528 ng/mL, the Vd/F [4, 7] was 190 L and the half-life ([4]; human, plasma, oral, 1 mg, fasted, mean, read-out: t1/2 (converted)) was 209 min. The Tmax ([4]; human, plasma, oral, 1 mg, fasted, median, read-out: tmax) was 30 min, the AUC(0-t) [4, 8] was 66 ng·h/mL and the Cmax [4, 8] was 19.8 ng/mL. It also gave a concentration at 0.25 h [4, 8] of 12.9 ng/mL, a concentration at 12 h ([4]; human, plasma, oral, 2 mg, fasted, mean, read-out: C12h) of 0.81 ng/mL and a Vd/F [4, 8] of 181 L. It also gave a half-life ([4]; human, plasma, oral, 2 mg, fasted, mean, read-out: t1/2 (converted)) of 256 min, a Tmax ([4]; human, plasma, oral, 2 mg, fasted, median, read-out: tmax) of 45 min and an AUC(0-t) [4, 9] of 129 ng·h/mL. For the same compound, the Cmax [4, 9] was 32.9 ng/mL, the concentration at 0.25 h [4, 9] was 13 ng/mL and the concentration at 12 h ([4]; human, plasma, oral, 4.5 mg, fasted, mean, read-out: C12h) was 1.93 ng/mL. It also gave a Vd/F [4, 9] of 222 L, a half-life ([4]; human, plasma, oral, 4.5 mg, fasted, mean, read-out: t1/2 (converted)) of 262 min and a Tmax ([4]; human, plasma, oral, 4.5 mg, fasted, median, read-out: tmax) of 60 min. For the same compound, the AUC(0-t) [4, 10] was 369 ng·h/mL, the Cmax [4, 10] was 97.3 ng/mL and the concentration at 0.25 h [4, 10] was 60.3 ng/mL. For the same compound, the concentration at 12 h ([4]; human, plasma, oral, 12 mg, fasted, mean, read-out: C12h) was 5.58 ng/mL, the Vd/F [4, 10] was 235 L and the half-life ([4]; human, plasma, oral, 12 mg, fasted, mean, read-out: t1/2 (converted)) was 255 min. The Tmax ([4]; human, plasma, oral, 12 mg, fasted, median, read-out: tmax) was 30 min, the Tmax ([4]; human, plasma, oral, 22 mg, HCHF breakfast vs fasted, read-out: delay of median tmax after HCHF breakfast) was roughly 120 min and the AUC(0-t) [4, 11] was 1020 ng·h/mL. For the same compound, the Cmax [4, 11] was 145 ng/mL, the concentration at 0.25 h [4, 11] was 48.3 ng/mL and the concentration at 12 h ([4]; human, plasma, oral, 22 mg, after HCHF breakfast, mean, read-out: C12h) was 19.6 ng/mL. For the same compound, the Vd/F [4, 11] was 180 L, the half-life ([4]; human, plasma, oral, 22 mg, after HCHF breakfast, mean, read-out: t1/2 (converted)) was 319 min and the Tmax ([4]; human, plasma, oral, 22 mg, after HCHF breakfast, median, read-out: tmax) was 180 min. The AUC(0-t) [4, 12] was 681 ng·h/mL, the Cmax [4, 12] was 213 ng/mL and the concentration at 0.25 h [4, 12] was 143 ng/mL. It also gave a concentration at 12 h ([4]; human, plasma, oral, 22 mg, fasted, mean, read-out: C12h) of 8.34 ng/mL, a Vd/F [4, 12] of 252 L and a half-life ([4]; human, plasma, oral, 22 mg, fasted, mean, read-out: t1/2 (converted)) of 337 min. For the same compound, the Tmax ([4]; human, plasma, oral, 22 mg, fasted, median, read-out: tmax) was 45 min, the concentration at 12 h ([4]; human, plasma, oral, 22 mg, fed (HCHF breakfast), read-out: Mean (±SD) C12h) was 19.6 ± 10.7 ng/mL and the concentration at 24 h ([4]; human, plasma, oral, 22 mg, fed (HCHF breakfast), read-out: Mean C24h) was 5.39 ± 5.47 ng/mL. The half-life ([4]; human, plasma, po, single oral doses 1-22 mg, read-out: mean t1/2 between doses) was 210 to 336 min and the “dose proportionality of PK (Cmax, AUClast, AUCinf)” value ([4]; single oral dose 1 mg to 22 mg, fasting) was “Dose proportional PK”.
